The assay has as its target T1, Lchα (α-component of the lantibiotic lichenicidin) (Bacillus licheniformis, UniProt P86475).
T1 construct: gene lchA1; mature post-translationally modified lantibiotic, 32 residues (leader removed; N-terminal 2-oxobutyryl, Abu3-Cys7 ring A, four (methyl)lanthionine rings); native purification from culture supernatant, 15N-labelled, no tag
T1 sequence (P86475 43-74): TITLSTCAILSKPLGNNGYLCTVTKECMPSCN
The assay can be described thus: NMR titration ([…]-HSQC, Asn32 signal intensity). It counts as binding. Particulars: read-out: Kapp.

Structures are written as SMILES.

As to `CC(=O)N[C@H]1[C@H](O[C@H]2[C@H](O[C@H](C)C(=O)N[C@@H](C)C(=O)N[C@H](CCC(=O)N[C@@H](CCCCN)C(=O)N[C@H](C)C(=O)N[C@H](C)C(=O)O)C(=O)O)[C@@H](NC(C)=O)[C@@H](OP(=O)(O)OP(=O)(O)OC/C=C(/C)CC/C=C(/C)CC/C=C(/C)CC/C=C(/C)CC/C=C(/C)CC/C=C(/C)CC/C=C(/C)CC/C=C(/C)CC/C=C(\C)CC/C=C(\C)CCC=C(C)C)O[C@@H]2CO)O[C@H](CO)[C@@H](O)[C@@H]1O` [lipid II], the Kd was around 10 µM.
